Data reported in ChEMBL document CHEMBL3885861, “Open TG-GATES”.

Organism: Rattus norvegicus
Assay: Open TG-GATES - Regimen: Daily Repeat
Assay type: toxicity, organism-based, Sprague-Dawley
Design: regimen Daily Repeat, gender Male, age 6 weeks
Conditions: in vivo, po, 8 mg/kg, route gavage, dose level Low; for APTT / Bas / Eos / Fbg / Hb / Ht / Lym / MCH / MCHC / MCV / Mono / Neu / PT / Plat / RBC / Ret / WBC: tissue Blood; for KIDNEY_L / KIDNEY_R / KIDNEY_TOTAL: tissue Kidney; for LIVER: tissue Liver; for A/G / ALP / ALT / AST / BUN / CRE / Ca / Cl / DBIL / GLC / IP / K / LDH / Na / PL / RALB / TBIL / TC / TG / TP / gamma-GTP: tissue Plasma

## NC1=NC(=O)C(c2ccccc2)O1 (configuration not stated) [PEMOLINE]
72 h, time 3 day
  TERMINAL_BW: 232.2 g
  APTT: 17.3 s
  Bas: 0%
  Eos: 1.2%
  Fbg: 275 mg/dL
  Hb: 13.5 g/dL
  Ht: 39.8%
  Lym: 77%
  MCH: 21.5 pg
  MCHC: 33.8%
  MCV: 63.5 fL
  Mono: 3.6%
  Neu: 18.2%
  PT: 12.8 s
  Plat: 112.1 x10_4/uL
  RBC: 627.2 x10_4/ul
  Ret: 7.3%
  WBC: 82.8 x10_2/uL
  KIDNEY_L: 1 g
  KIDNEY_R: 1 g
  KIDNEY_TOTAL: 1.9 g
  LIVER: 11.1 g
  A/G: 0.9
  ALP: 1587 IU/L
  ALT: 45.6 IU/L
  AST: 70.6 IU/L
  BUN: 15 mg/dL
  CRE: 0.2 mg/dL
  Ca: 10.8 mg/dL
  Cl: 105.6 meq/L
  DBIL: 0.018 mg/dL
  GLC: 182 mg/dL
  IP: 8.2 mg/dL
  K: 3.7 meq/L
  LDH: 58.8 IU/L
  Na: 143.6 meq/L
  PL: 155.8 mg/dL
  RALB: 2.7 g/dL
  TBIL: 0.03 mg/dL
  TC: 93 mg/dL
  TG: 84.4 mg/dL
  TP: 5.6 g/dL
  gamma-GTP: 1 IU/L
[…], time 7 day
  TERMINAL_BW: 267.2 g
  APTT: 17.3 s
  Bas: 0.2%
  Eos: 1%
  Fbg: 286.6 mg/dL
  Hb: 13.8 g/dL
  Ht: 40.5%
  Lym: 79.4%
  MCH: 21.6 pg
  MCHC: 34.1%
  MCV: 63.2 fL
  Mono: 3%
  Neu: 16%
  PT: 12.8 s
  Plat: 119.7 x10_4/uL
  RBC: 641.4 x10_4/ul
  Ret: 5.9%
  WBC: 119.6 x10_2/uL
  KIDNEY_L: 1.2 g
  KIDNEY_R: 1.1 g
  KIDNEY_TOTAL: 2.3 g
  LIVER: 12.4 g
  A/G: 0.9
  ALP: 1719 IU/L
  ALT: 45 IU/L
  AST: 69.8 IU/L
  BUN: 15.8 mg/dL
  CRE: 0.2 mg/dL
  Ca: 10.5 mg/dL
  Cl: 103.8 meq/L
  DBIL: 0.014 mg/dL
  GLC: 180.8 mg/dL
  IP: 7.6 mg/dL
  K: 3.9 meq/L
  LDH: 62.6 IU/L
  Na: 142 meq/L
  PL: 152.6 mg/dL
  RALB: 2.6 g/dL
  TBIL: 0.026 mg/dL
  TC: 84.6 mg/dL
  TG: 94.4 mg/dL
  TP: 5.7 g/dL
  gamma-GTP: 1 IU/L
[…], time 14 day
  TERMINAL_BW: 337.4 g
  APTT: 17.3 s
  Bas: 0%
  Eos: 1%
  Fbg: 297 mg/dL
  Hb: 14.2 g/dL
  Ht: 40.8%
  Lym: 74.8%
  MCH: 21.4 pg
  MCHC: 34.8%
  MCV: 61.3 fL
  Mono: 2.4%
  Neu: 21.4%
  PT: 12.7 s
  Plat: 109.6 x10_4/uL
  RBC: 665.6 x10_4/ul
  Ret: 4.6%
  WBC: 83 x10_2/uL
  KIDNEY_L: 1.3 g
  KIDNEY_R: 1.3 g
  KIDNEY_TOTAL: 2.6 g
  LIVER: 14.9 g
  A/G: 0.8
  ALP: 1588.8 IU/L
  ALT: 47.4 IU/L
  AST: 70.4 IU/L
  BUN: 14.8 mg/dL
  CRE: 0.2 mg/dL
  Ca: 11.1 mg/dL
  Cl: 105.6 meq/L
  DBIL: 0.014 mg/dL
  GLC: 179.2 mg/dL
  IP: 8.2 mg/dL
  K: 3.7 meq/L
  LDH: 75 IU/L
  Na: 144.6 meq/L
  PL: 150.4 mg/dL
  RALB: 2.7 g/dL
  TBIL: 0.028 mg/dL
  TC: 80 mg/dL
  TG: 117 mg/dL
  TP: 5.8 g/dL
  gamma-GTP: 1 IU/L
[…], time 28 day
  TERMINAL_BW: 432.5 g
  APTT: 17.5 s
  Bas: 0%
  Eos: 1%
  Fbg: 251.8 mg/dL
  Hb: 15.2 g/dL
  Ht: 42%
  Lym: 70%
  MCH: 20.3 pg
  MCHC: 36.2%
  MCV: 56.2 fL
  Mono: 3.4%
  Neu: 24.6%
  PT: 12.5 s
  Plat: 97.4 x10_4/uL
  RBC: 746.4 x10_4/ul
  Ret: 3.1%
  WBC: 106.7 x10_2/uL
  KIDNEY_L: 1.6 g
  KIDNEY_R: 1.6 g
  KIDNEY_TOTAL: 3.2 g
  LIVER: 17.3 g
  A/G: 0.8
  ALP: 966.8 IU/L
  ALT: 41.4 IU/L
  AST: 63.2 IU/L
  BUN: 15.2 mg/dL
  CRE: 0.2 mg/dL
  Ca: 11.4 mg/dL
  Cl: 104.8 meq/L
  DBIL: 0.016 mg/dL
  GLC: 192.2 mg/dL
  IP: 7.5 mg/dL
  K: 3.9 meq/L
  LDH: 61.8 IU/L
  Na: 142.6 meq/L
  PL: 154.6 mg/dL
  RALB: 2.8 g/dL
  TBIL: 0.028 mg/dL
  TC: 84.4 mg/dL
  TG: 121.4 mg/dL
  TP: 6.1 g/dL
  gamma-GTP: 1 IU/L
